Assays:
MCF-7 breast cancer = settings: in vitro; cited from earlier work
[1] = tested on: corneal neovascularization; assay: Inhibition of corneal neovascularization in cauterized rat corneas, topical application four times per day for four days; format: in vivo; settings: for Neovascularization (percent of the corneal area occupied by blood vessels): mean ± S.D.; for Percent Inhibition of neovascularization: versus vehicle
Method: (§1) The ability of etianic acids to inhibit angiogenesis was evaluated in vivo in rats. Each animal had its corneas cauterized with silver nitrate/potassium nitrate. The cauterization causes the normally avascular cornea to undergo neovascularization (anglogenesis). This animal model, refined by Proia et al., Lab. Invest. 58: 473-479 (1988) and now a well-established assay, quantifies corneal neovascularization by computerized image analysis. […] Ophthalmol. Vis. Science 30: 1588-1593 (1989), and can provide a more definitive evaluation of angiostatic activity than models using the chorioallantoic membrane in the chick egg or the rabbit eye model. See Proia et al., Exp. Eye Res. (in press--to be published in Vol. 57 in 1993).
(§2) Female rats were obtained from Zivic-Miller Laboratories, Zelienople, Pa. There were 6-8 rats included in each treatment group. Neovascularization was induced by cauterizing both corneas of each anesthetized rat; this was performed by applying the tip of a silver nitrate/potassium nitrate to the cornea for 5-7.5 seconds.
The corneal tissues were treated with steroid formulations.
Steroids were formulated in vehicle containing 10 percent Tween 20 (polyoxyethylene sorbitan monolaurate) dissolved in 0.9 percent saline with percent (by volume) 0.2M tris (hydroxymethyl)aminomethane, pH 7.4. […] All steroids were tested at a concentration of 1 percent; additionally, some formulations were also tested at 0.01 percent, 0.1 percent, and 2.5 percent. Three 10 μl drops of each concentration of steroid were applied topically to each cauterized cornea four times per day (8:00 a.m., noon, 4:00 p.m., and 8:00 p.m.).
(§3) After four days of treatment, the animals were euthanized by rapid asphyxiation in a carbon dioxide chamber. The vasculature was perfused with a mixture of 10 percent india ink/11 percent gelatin/lactated Ringer's solution. Corneal tissue was dissected and prepared as flat mounts. During dissection, the corneas were examined with a dissecting microscope, and the degree of neovascularization was graded numerically from 1+ to 4+. After dehydration with alcohols, cleaning with xylene, mounting, and drying, the area of each cornea and the length of blood vessels were determined by computerized image analysis.
Statistical evaluation of inhibition of corneal neovascularization by each concentration of drug was evaluated using Mann Whitney U Tests (one-tailed; P<0.05=significant difference). […] In all cases, however, image analysis was used to quantitatively confirm visual observations.

thymus = assay: Thymus weight of rats treated topically in the corneal angiogenesis study; format: in vivo, rat
Method: as §1, §2
(§4) Steroids were formulated in vehicle containing 10 percent Tween 20 (polyoxyethylene sorbitan monolaurate) dissolved in 0.9 percent saline with percent (by volume) 0.2M tris (hydroxymethyl)aminomethane, pH 7.4. The steroids dissolved readily when the pH was adjusted to 7.0-8.0 with NaOH or KOH. All steroids were tested at a concentration of 1 percent; additionally, some formulations were also tested at 0.01 percent, 0.1 percent, and 2.5 percent. Three 10 μl drops of each concentration of steroid were applied topically to each cauterized cornea four times per day (8:00 a.m., noon, 4:00 p.m., and 8:00 p.m.).
as §3

[2] = Body weight of rats treated topically in the corneal angiogenesis study; format: in vivo, rat; settings: topical, all concentrations
Method: as §1, §2, §4
as §3, with “Corneal tissue was dissected and prepared as flat mounts. During dissection, the corneas were examined with a dissecting microscope, and the degree of neovascularization was graded numerically from 1+ to 4+.” left out

[3] = tested on: corneal neovascularization; assay: Corneal angiogenesis inhibition, subcutaneous injection once/day; format: in vivo, rat
Method: as §1, §2, §3
The ability of compounds 2013, 518, and 513 to inhibit corneal angiogenesis when injected subcutaneously once/day to was assessed on rats prepared as described in Example 8. Dexamethasone was used as a positive control.

rat corneas = assay: Histological study of steroid-treated cauterized corneal tissue; format: in vivo; settings: 1 percent topical QID
Method: A histological study was performed in which either vehicle or 1 percent compound 2013 (17β-carboxylic acid derivative of prednisolone) was applied topically (QID) to rat corneas cauterized as described in Example 23. Five rats were included in each experimental group. The rats were killed either one or four days after treatment.
Histological sections were prepared through the cautery site.

[4] = tested on: Dunning R3327 (PAP) prostatic adenocarcinoma; settings: in vitro; cited from earlier work
[5] = tested on: Kirsten murine sarcoma virus transformed human skin fibroblasts; settings: cited from earlier work
human pancreatic cancers = assay: Inhibition of human pancreatic cancers; settings: in particular cancers rich in glucocorticoid receptors
glucocorticoid activity = assay: Glucocorticoid activity (general statements)

C[C@]12C=CC(=O)C=C1CC[C@@H]1[C@@H]2[C@@H](O)C[C@@]2(C)[C@H]1CC[C@]2(O)C(=O)NCc1ccccc1 [benzylamide derivative, prednienic acid benzylamide]
Inhibition of MCF-7 breast cancer (in words) (MCF-7 breast cancer): inhibits MCF-7 breast cancer

C[C@]12C=CC(=O)C=C1CC[C@@H]1[C@@H]2[C@@H](O)C[C@@]2(C)[C@H]1CC[C@]2(O)C(=O)O [Compound 2013, 17β-carboxyl-11β,17α-dihydroxy-3-oxo-1,4-androstadiene]
Neovascularization (percent of the corneal area occupied by blood vessels) ([1]; Experiment A, topical 0.01%): 26.2 ± 6.3%
Percent Inhibition of neovascularization ([1]; Experiment A, topical 0.01%): +21%
Neovascularization (percent of the corneal area occupied by blood vessels) ([1]; Experiment A, topical 0.1%): 13.9 ± 7.3%
Percent Inhibition of neovascularization ([1]; Experiment A, topical 0.1%): 36%
Neovascularization (percent of the corneal area occupied by blood vessels) ([1]; Experiment A, topical 1.0%): 9.8 ± 2.0%
Percent Inhibition of neovascularization ([1]; Experiment A, topical 1.0%): 55%
Neovascularization (percent of the corneal area occupied by blood vessels) ([1]; Experiment B, topical 0.01%): 18.3 ± 4.0%
Percent Inhibition of neovascularization ([1]; Experiment B, topical 0.01%): 22%
Neovascularization (percent of the corneal area occupied by blood vessels) ([1]; Experiment B, topical 0.1%): 14.6 ± 6.8%
Percent Inhibition of neovascularization ([1]; Experiment B, topical 0.1%): 38%
Neovascularization (percent of the corneal area occupied by blood vessels) ([1]; Experiment B, topical 1.0%): 16.0 ± 3.6%
Percent Inhibition of neovascularization ([1]; Experiment B, topical 1.0%): 32%
Inhibition of corneal vascularization (significance, in words) ([1]; applied topically): did cause significant inhibition of corneal vascularization
Change in thymus weight (in words) (thymus; topical 0.1 percent): no significant effect on thymus weight
Decrease of thymus weight from control (thymus; topical 1 percent): 27%
Thymus weight (thymus; topical 1 percent, four days): 0.207±0.035 gm
Effect on body weight (in words) [2]: Body weight was unaffected by treatment with any concentration
Neovasc. ([3]; 10 mg/kg/day subcutaneous): 21.5 ± 6.3%
Neovasc. ([3]; 25 mg/kg/day subcutaneous): 17.1 ± 3.0%
Degree of leukocytic infiltrate versus vehicle (in words) (rat corneas; 24 or 96 hours post-cautery): no difference in the degree of leukocytic infiltrate
Corneal reepithelialization and neovascularization (in words) (rat corneas; 24 hours after cautery): Neither corneal reepithelialization nor neovascularization were observed
Corneal reepithelialization (in words) (rat corneas; 96 hours post-cautery): all corneas were reepithelialized
Neovascularization (histological) (rat corneas; 96 hours post-cautery): 0.6±0.6
Neovascularization versus vehicle (in words) (rat corneas; 96 hours post-cautery): marked reduction in neovascularization
Growth inhibition of Dunning R3327 (PAP) (in words) [4]: inhibits growth of the Dunning R3327 (PAP) prostatic adenocarcinoma
Neodifferentiation into adipose cells (in words) [5]: promotes neodifferentiation

C[C@]12C=C(C(=O)O)C(=O)C=C1CC[C@@H]1[C@@H]2[C@@H](O)C[C@@]2(C)[C@H]1CC[C@]2(C)O [2-carboxyl-11β,17β-dihydroxy-17α-methyl-1,4-androstadien-3-one]
Inhibition of human pancreatic cancers (in words) (human pancreatic cancers): inhibits certain human pancreatic cancers, and in particular inhibits those cancers rich in glucocorticoid receptors
Glucocorticoid activity (in words) (glucocorticoid activity): anti-glucocorticoid
